The numbers were not newly measured in patent publication US20090170848A1, “THIAZOLONES FOR USE AS PI3 KINASE INHIBITORS” (SMITHKLINE BEECHAM CORPORATION, priority 2006, published 2009), which cites them from elsewhere.

Data set [1] deals with Class I PI3-kinases.
Data set [2] concerns the target CK2 protein kinase (Homo sapiens, UniProt P68400).

Read-outs that look alike come from different tables or passages of the source.

Chain of CK2 protein kinase (P68400 whole entry): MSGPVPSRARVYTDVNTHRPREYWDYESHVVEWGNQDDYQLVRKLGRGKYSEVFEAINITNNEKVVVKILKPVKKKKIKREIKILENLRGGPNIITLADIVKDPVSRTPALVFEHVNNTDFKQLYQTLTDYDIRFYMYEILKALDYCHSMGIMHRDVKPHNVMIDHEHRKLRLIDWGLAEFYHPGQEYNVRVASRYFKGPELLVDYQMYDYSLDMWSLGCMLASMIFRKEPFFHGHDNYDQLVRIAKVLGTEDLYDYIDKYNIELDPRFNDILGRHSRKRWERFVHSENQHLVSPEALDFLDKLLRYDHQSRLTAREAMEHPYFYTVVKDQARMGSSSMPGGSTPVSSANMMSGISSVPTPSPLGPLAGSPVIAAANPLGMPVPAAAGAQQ

Consider `O=c1cc(N2CCOCC2)oc2c(-c3ccccc3)cccc12` [LY294002], for which the values for the half-maximal inhibitory concentration (IC50) in data set [1] (read-out: IC50 values against each of these PI3-kinases) and in data set [2] were 15 to 20 µM and 5 to 10 µM, respectively.

For the compound `COC[C@H]1OC(=O)c2coc3c2[C@@]1(C)C1=C(C3=O)[C@@H]2CCC(=O)[C@@]2(C)C[C@H]1OC(C)=O` [wortmannin], the IC50 (in general, the concentration needed to halve the response being measured) in data set [1] (each of the four members of Class I PI3-kinases, read-out: IC50 values against each of the various Class I PI3-kinases) was 0.001 to 0.01 µM.
